For series [1] the following is noted: cited from earlier work.
For a further series, the target named is T1, ABCG2 (Homo sapiens, UniProt Q9UNQ0).
T1 construct: monolayers of Caco-2 cells expressing ABCG2 were grown on a permeable support; endogenous in cells; host or cells: Caco-2
T1 sequence (Q9UNQ0 1-655): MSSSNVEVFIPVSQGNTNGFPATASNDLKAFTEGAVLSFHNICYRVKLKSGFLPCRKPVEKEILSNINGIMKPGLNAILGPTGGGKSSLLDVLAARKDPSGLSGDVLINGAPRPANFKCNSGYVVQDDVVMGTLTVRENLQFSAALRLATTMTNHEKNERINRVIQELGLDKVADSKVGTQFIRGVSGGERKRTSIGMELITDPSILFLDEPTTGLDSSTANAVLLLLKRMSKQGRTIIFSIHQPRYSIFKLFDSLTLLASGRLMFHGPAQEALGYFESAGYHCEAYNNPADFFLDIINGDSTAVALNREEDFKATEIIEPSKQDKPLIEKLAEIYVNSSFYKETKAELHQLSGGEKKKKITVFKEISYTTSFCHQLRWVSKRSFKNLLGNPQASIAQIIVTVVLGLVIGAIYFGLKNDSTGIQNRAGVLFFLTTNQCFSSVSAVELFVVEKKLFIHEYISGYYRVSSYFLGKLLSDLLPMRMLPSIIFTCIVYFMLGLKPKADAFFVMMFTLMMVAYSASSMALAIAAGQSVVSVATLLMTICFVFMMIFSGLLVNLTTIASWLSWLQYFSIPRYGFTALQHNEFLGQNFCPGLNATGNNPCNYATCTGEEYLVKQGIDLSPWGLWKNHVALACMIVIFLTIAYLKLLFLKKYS
Briefly: ABCG2 genistein net B→A flux in Caco-2 monolayers. It counts as cell-based. As to the method:
For ABCG2, monolayers of Caco-2 cells expressing ABCG2 were grown on a permeable support ([…] membranes) in 24-transwell plates. […] Each treatment was assayed in triplicate: [^3H]-genistein substrate at 2 nM was then added for an additional 120 minutes at 37 °C. For basolateral-to-apical (B → A) flux measurements, genistein was placed in the basolateral compartment only (donor well) and a sample was taken after the 120-minute incubation period from the apical compartment (receiver well). For apical-to-basolateral (A → B) flux measurements, genistein was placed in the apical compartment only (donor well) and a sample was taken after the 120-minute incubation period from the basolateral compartment (receiver well). Samples were then subjected to scintillation counting. The inhibition of BCRP/ABCG2 was then calculated by the net B → A flux method. […]
The net transport in the B → A direction was determined by subtracting the substrate flux in the A → B direction from that in the B → A direction: NetB→Aflux=PappB→A‐PappA→B.
Percent inhibition is calculated by dividing the Net (B → A) flux in the presence of the inhibitor by the Net (B → A) flux in the absence of the inhibitor (inh): PercentInhibition=100‐100*NetB→Ainh/meanNetB→A.

The conditions of series [2]: cited from earlier work. This is another data set of the same source.
In another series the target is T2, PPARγ (Homo sapiens, UniProt P37231).
T2 sequence (P37231 238-505 limits assumed): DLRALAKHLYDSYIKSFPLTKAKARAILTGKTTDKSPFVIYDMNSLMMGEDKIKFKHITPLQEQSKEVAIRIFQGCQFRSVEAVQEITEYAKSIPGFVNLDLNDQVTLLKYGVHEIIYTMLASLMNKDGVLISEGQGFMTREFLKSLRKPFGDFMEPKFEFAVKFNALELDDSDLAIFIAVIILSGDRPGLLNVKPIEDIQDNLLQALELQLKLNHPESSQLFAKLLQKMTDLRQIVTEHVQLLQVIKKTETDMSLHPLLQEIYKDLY
The series can be described thus: Human PPARγ luciferase reporter assay. The class given is cell-based. Conditions: reporter cells, 24 hours, up to 100 μM. As for the experimental part:
This assay was performed using nonhuman mammalian cells engineered to provide a PPARγ-responsive luciferase reporter gene and constitutive, high levels of PPARγ (Indigo Biosciences catalog number IB00101). Cells were incubated with compounds for 24 hours, and then luciferase activity was measured using a luminometer. Agonist activity was reported as fold activation over a vehicle control. A positive control agonist, rosiglitazone, was included in each batch run to verify cell integrity.
A general note: In a reporter assay the amount or activity of a reporter protein is the signal.

Series [3] can be described thus: Lesinurad plasma pharmacokinetics and urinary excretion in the clinic. The following applies: single 200-mg dose. It counts as in vivo, human. As for the experimental part:
In each treatment period, plasma samples were collected within 30 minutes before dosing (pre-dose) and at 0.5, 1, 1.5, 2, 3, 4, 5, 6, 8, 10, 12, 16, 24, 30, 36, and 48 hours post-dose. Urine (total catch) was collected pretreatment at hours –24 to –18, –18 to –12, and –12 to 0, and post-dose at hours 0 to 6, 6 to 12, 12 to 24, 24 to 30, 30 to 36, and 36 to 48.
After protein precipitation of the samples, lesinurad levels in plasma and urine were measured at Ardea Biosciences by quantitative high performance liquid chromatography with tandem mass spectrometry. […] The parameters from individual profiles of lesinurad were determined using noncompartmental methods. Urine samples were analyzed for uric acid and creatinine using enzymatic methods by Covance Clinical Research Unit (Dallas, TX, USA), and pharmacodynamic (PD) parameters were determined by Covance Clinical Research Unit using SAS, Version 8.2 (SAS Institute Inc). Calculated PD parameters for uric acid included urinary excretion, renal clearance, and FEUA. FEUA was calculated by dividing the uric acid clearance by the creatinine clearance.

The test system of a further series is HepG2 cells. Briefly: Mitochondrial toxicity assay (JC-1 mitochondrial membrane potential). It counts as cell-based, human. Conditions: HepG2, highest concentration tested 33 μM. As for the experimental part:
HepG2 cells were counted via hemocytometer and diluted into equal volumes of serum-free Opti-MEM (Life Technologies) and JC-1 Staining Solution (Sigma catalog number CS0390) at 300,000 cells/mL in the presence of 2.5 μg/mL JC-1. Cells were incubated at 37 °C and 5 % CO2 for 20 minutes, rinsed once with Hank's Balanced Salt Solution, and resuspended to the same concentration in serum-free Opti-MEM. Cells were then seeded into 96-well black-sided clear-bottom tissue culture plates at 30,000 cells/100 μL/well. Three replicates per experimental condition group were used. Compound was added with the final dimethyl sulfoxide (DMSO) concentration at 0.5 %. After 2 hours at 37 °C and 5 % CO2, medium was aspirated and plates were read on a Gemini EM spectrofluorometer (Molecular Devices). Fluorescence of JC-1 monomers was monitored by excitation at 490 nm and emission at 530 nm (green) and of aggregates by excitation at 525 nm and emission at 590 nm (red). The ratio of J-aggregates to monomers was calculated, with a lower ratio indicating increased cell toxicity. The percent change in mitochondrial membrane potential (Ψm) was calculated as follows: […]

As for `O=C(O)CSc1nnc(Br)n1-c1ccc(C2CC2)c2ccccc12` [Lesinurad, 2-((5-bromo-4-(4-cyclopropylnaphthalen-1-yl)-4H-1,2,4-triazol-3-yl)thio) acetic acid], the Plasma protein binding in series [1] is 98.4%. For the same compound, the IC50 at ABCG2 (Caco-2, 2 nM [3H]-genistein, 120 min, read-out: Potency against ABCG2) was over 100 µM. The “Effect on ABCG2 activity” value at ABCG2 (Caco-2, at up to 100 μM) is reported as “no effect”. For the same compound, in series [2], the “Fraction of compound excreted via urine” value is given as “approximately one third”. For the same compound, the PPARγ activation entry at PPARγ was “no PPARγ agonism”. Moreover, the Maximal plasma concentration in series [3] stood at 29 µM. Further, in series [3] (from Cmax and 98.4 % protein binding), the “Predicted maximal plasma-free concentration” value was 0.46 µM. In addition, the Mitochondrial toxicity result in the series with HepG2 cells is given as “no mitochondrial toxicity”.

(Values after publication PMC5048659 (Arthritis Research & Therapy, 2016).)
